Assay results reported in patent US8017374B2, “Processes for decolorization of colored effluents” (priority 2005, dated 2011).

Legend:
[1] = Decolorization using exopolymeric substance produced by NIOCC 2a; set-up: species or system unidentified marine fungus NIOCC #2a (MTCC 5159); conditions: 24 hours, dyes 0.015-0.04%, 10 mg EPS, 60° C., phosphate buffer pH 6
Procedure: The process of decolorization of effluents using the exoploymeric substance (EPS) produced by the fungus is carried out using separated and freeze dried EPS. A known amount of EPS is incubated with appropriately diluted effluents for a period of 6 to 12 hours. The decolorization is monitored in the supernatant after centrifugation. While using the EPS, about 10 mg of EPS (dry weight) is contacted with 3 ml of effluent having the final concentration of 10%.
The exopolymeric substance (EPS) of the fungus NIOCC 2a was prepared as follows: 1 liter of a 12 day old culture filtrate was frozen for 12 to 24 hours and allowed to thaw. The EPS precipitated on thawing and was removed by decantation. Methanol at a final concentration of 70% was added to the supernatant to further precipitate the remaining EPS from the culture supernatant. The precipitated EPS was collected by centrifugation and the pooled precipitate was lyophilized. To 10 mg of this EPS, various dyes and effluents were added at concentrations as given in example 2 and incubated at 60° C. with phosphate buffer at pH 6. […]

[2] = system: culture supernatant of NIOCC 2a; experiment: Decolorization using culture supernatant of NIOCC 2a; format: biochemical, unidentified marine fungus NIOCC #2a (MTCC 5159); conditions: dyes 0.02-0.04%, 60° C., pH 6.0, supernatant concentrated two-fold
Procedure: The process of decolorization of various dyes and effluents using the cell-free supernatant involves addition of filter sterilized culture supernatant of the said fungus grown in the presence of various dyes, inducers and dilute effluents. The decolorization of the effluents was monitored spectrophotometrically at appropriate wavelengths up to 12 hours. The uninoculated culture medium containing these dyes served as control.
NIOCC 2a was grown in B&K medium prepared in sea water of 25 ppt salinity (the pH of the medium being 7.0) for 6 days. It was supplemented with 1% textile effluent B on day 6. The culture supernatant on day 12 was collected and concentrated two-fold. The concentrated enzyme was incubated with various dyes used at concentrations as given in Example 2 and the effluents were used at 10% only. The decolorization was monitored at 6 and 12 hours by incubating the samples in a water bath at 60° C. and pH 6.0 The absorbance maxima specific to that particular dye/effluent was monitored for 6 to 12 hours.

[3] = system: NIOCC 2a; experiment: Enhancement of laccase production by inducers; laccase activity in culture supernatant (ABTS); conditions: for LACCASE ACTIVITY: dyes as inducers at 0.015-0.04%;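 on all read-outs here: supernatant laccase measured by 2 mM ABTS oxidation in 100 mM glycine-HCl buffer at pH 3, absorbance at 405 nm tracked over time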
Procedure: The laccase activity in the culture supernatant was measured using 2 mM ABTS prepared in 100 mM glycine-HCl buffer (pH 3) at 405 nm spectrophotometrically as a function of time.
In order to enhance the laccase production by MTCC 5159 various inducers were added to a 3 day old culture grown in B&K medium prepared in 25 ppt sea water having a pH of 7.0. The inducers such as p-anisidine, catechol, guaiacol, ferulic acid, vanillic acid, veratryl alcohol and 2,5 dimethyl aniline were used at a final concentration of 1 mM. […] The laccase activity in the culture supernatant was measured at an interval of 3 days up to 21 days as described in Example 1.
Dyes which are generally used for decolorization were also tested for their laccase induction properties. Trypan blue, aniline blue and remazol brilliant blue R at a final concentration of 0.04%, methylene blue, crystal violet, brilliant green and congo red at 0.02% and reactive orange 176 at 0.015% final concentration were added to B & K medium prepared in 25 ppt sea water having the pH of 7.0.

[4] = system: fungus MTCC 5159; experiment: Decolorization of dyes and effluents by growing fungus culture; format: cell-based, unidentified marine fungus NIOCC #2a (MTCC 5159); conditions: FIG. 2a, up to day 6
Source text: Black liquor is dark brown in color and after decolorization by the fungus MTCC 5159, it turns light brown after 6 days. Similarly molasses spent wash is dark brown and turns straw color after 6 days. Textile effluents A, originally magenta in color was comparatively difficult to decolorize whereas Textile effluent B, originally bottle green in color was comparatively easy to decolorize to a light green color after 6 days. The process for the decolorization of various effluents utilizing the fungal biomass involves addition of sterilized, appropriately diluted effluents to a 6 day-old culture of NIOCC 2a growing in B&K medium. The degradation of effluents and various dyes is monitored spectrophotometrically by removing an aliquot of sample from these cultures and measuring changes in absorbance at appropriate wavelengths. The decolorization is measured every alternate day up to 6 days. […]
The fungus MTCC 5159 was tested for its ability to decolorize various dyes and effluents by monitoring the change in its specific absorbance maxima every alternate day over a period of 6 days after the dye/effluents were added. […] The extent of decolorization was recorded as residual color (in percentage). […] Effluents like textile effluent A, B, MSW and black liquor were also monitored at their absorbance maxima in B&K medium, at 505, 663, 663 and 317 nm respectively.

Row | Molecule | PERCENT DECOLORIZATION ([1]; listed as Congo red) [%] | PERCENT DECOLORIZATION ([1]; listed as congo red) | PERCENT DECOLORIZATION ([2]; 6 hours) [%] | PERCENT DECOLORIZATION ([2]; 12 hours) [%] | comparison of inducers of laccase production, in words [3] | PERCENT DECOLORIZATION [1] [%] | LACCASE ACTIVITY ([3]; day 3) [UL^−1] | LACCASE ACTIVITY ([3]; day 6) [UL^−1] | LACCASE ACTIVITY ([3]; day 8) [UL^−1] | LACCASE ACTIVITY ([3]; day 10) [UL^−1] | LACCASE ACTIVITY ([3]; day 12) [UL^−1] | LACCASE ACTIVITY ([3]; day 14) [UL^−1] | LACCASE ACTIVITY ([3]; day 16) [UL^−1] | LACCASE ACTIVITY ([3]; day 18) [UL^−1] | comparison of dye degradation by the fungus culture, in words [4]
1 | Nc1c(/N=N/c2ccc(-c3ccc(/N=N/c4cc(S(=O)(=O)O)c5ccccc5c4N)cc3)cc2)cc(S(=O)(=O)O)c2ccccc12 [Congo Red, congo red] | 29 | not decolorized to these extents | 54 | 47 | – | – | – | – | – | – | – | – | – | – | –
2 | O=S(=O)([O-])[O-].[Cu+2] [Copper sulphate] | – | – | – | – | best inducer | – | – | – | – | – | – | – | – | – | –
3 | CN(C)c1ccc(C(=C2C=CC(=[N+](C)C)C=C2)c2ccc(N(C)C)cc2)cc1 [Crystal Violet, crystal violet] | – | – | 44 | 54 | – | 80 | – | – | – | – | – | – | – | – | –
4 | CN(C)c1ccc2nc3ccc(=[N+](C)C)cc-3sc2c1 [Methylene Blue, methylene blue] | – | – | 3 | 5 | – | – | – | – | – | – | – | – | – | – | –
5 | Nc1c(S(=O)(=O)[O-])cc(Nc2cccc(S(=O)(=O)CCOS(=O)(=O)[O-])c2)c2c1C(=O)c1ccccc1C2=O.[Na+].[Na+] [RBBR, remazol brilliant blue R] | – | – | 67 | 46 | – | 100 | 3 | 43 | 0 | 0 | 0 | 0 | 0 | 0 | –
6 | Cc1cc(-c2ccc(/N=N/c3c(S(=O)(=O)O)cc4cc(S(=O)(=O)O)cc(N)c4c3O)c(C)c2)ccc1/N=N/c1c(S(=O)(=O)O)cc2cc(S(=O)(=O)O)cc(N)c2c1O [Trypan Blue, Trypan blue] | – | – | 22 | 25 | – | 79 | – | – | – | – | – | – | – | – | –
7 | Reactive orange 176 [RO 176] | – | – | – | – | – | 100 | 21 | 8 | 335 | 949 | 904 | 1158 | 1108 | 1180 | least degraded
8 | aniline blue | – | – | 55 | 40 | – | 75 | 12 | 67 | 21 | 825 | 1051 | 1166 | 1211 | 1048 | –
